Results from patent US9006221B2, “Method of modulating ship activity” (H. Lee Moffitt Cancer Center and Reserach Institute, Inc., priority 2008, dated 2015).

How the values were obtained:
SHIP1 = molecular target: T1, SHIP1 (Mus musculus, UniProt Q9ES52); assay: Malachite Green phosphate release assay, SHIP1; format: biochemical; details: at 1 mM
T1 construct: The asterisk in lanes 1 and 3 indicates the ˜145 kD full-length SHIP protein; His tag (C); made in house; host or cells: E. coli Rosetta-Gami 2 (DE3) pLys
T1 sequence (Q9ES52 1-1191): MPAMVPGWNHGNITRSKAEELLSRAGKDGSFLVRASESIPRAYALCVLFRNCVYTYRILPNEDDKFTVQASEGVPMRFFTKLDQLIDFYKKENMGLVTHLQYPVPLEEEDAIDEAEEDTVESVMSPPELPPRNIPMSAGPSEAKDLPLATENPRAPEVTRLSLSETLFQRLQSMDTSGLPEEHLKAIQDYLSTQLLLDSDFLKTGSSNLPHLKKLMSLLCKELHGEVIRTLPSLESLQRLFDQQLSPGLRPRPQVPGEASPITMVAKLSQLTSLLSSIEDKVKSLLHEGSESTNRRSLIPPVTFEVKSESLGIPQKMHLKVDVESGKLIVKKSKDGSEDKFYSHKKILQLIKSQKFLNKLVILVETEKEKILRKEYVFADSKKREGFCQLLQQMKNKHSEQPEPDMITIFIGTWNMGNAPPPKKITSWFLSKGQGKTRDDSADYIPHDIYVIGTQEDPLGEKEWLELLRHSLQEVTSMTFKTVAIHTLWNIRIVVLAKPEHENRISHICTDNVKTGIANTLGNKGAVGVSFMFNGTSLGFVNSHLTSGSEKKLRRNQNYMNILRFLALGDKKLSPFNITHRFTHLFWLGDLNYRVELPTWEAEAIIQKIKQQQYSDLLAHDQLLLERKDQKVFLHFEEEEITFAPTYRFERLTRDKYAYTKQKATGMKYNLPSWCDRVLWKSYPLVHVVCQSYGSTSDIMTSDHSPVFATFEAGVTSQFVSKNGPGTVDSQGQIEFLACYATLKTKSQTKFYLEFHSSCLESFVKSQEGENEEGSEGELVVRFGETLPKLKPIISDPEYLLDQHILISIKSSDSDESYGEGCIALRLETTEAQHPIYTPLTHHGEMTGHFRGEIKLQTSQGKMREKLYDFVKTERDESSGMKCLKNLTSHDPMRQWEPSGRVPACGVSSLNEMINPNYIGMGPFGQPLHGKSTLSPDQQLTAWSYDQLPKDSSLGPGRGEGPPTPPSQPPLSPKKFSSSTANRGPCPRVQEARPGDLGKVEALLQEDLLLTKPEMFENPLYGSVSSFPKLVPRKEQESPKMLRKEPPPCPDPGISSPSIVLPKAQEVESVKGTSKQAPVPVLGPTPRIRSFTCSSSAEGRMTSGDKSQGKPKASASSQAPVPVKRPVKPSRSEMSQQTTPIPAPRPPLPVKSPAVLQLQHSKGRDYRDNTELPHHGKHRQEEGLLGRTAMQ

KG-1 AML cells = assay: MTT cell viability assay, KG1; format: cell-based, human; details: KG-1, expresses SHIP1, 36 hours
Protocol: (A) SHIP1 expression in KG1 and MG63 cells was determined by Western blotting (top). Membranes were reprobed with antibodies against b-actin to confirm equal loading (lower panel). One representative blot of 2 individual experiments is shown. (B) KG1 and MG63 cells were plated in duplicate in 96 well plates, and treated for 36 hours with increasing concentrations of the 3α-aminocholestane. Cell viability was assessed by MTT assay. Results represent the mean of three individual experiments. (C) KG1 cells were treated with increasing concentrations of 3α-aminocholestane for 36 hours and hallmarks of apoptosis were identified in cell lysates by Western Blot analysis. […] (D) KG1 cells were treated with increasing concentrations of 3α-aminocholestane, and the percentage of AnnexinV and PI positive cells was determined by FACS analysis. […]
Cell viability assay: Cells were treated in duplicate for 36 hours with increasing concentrations of 3α-aminocholestane or vehicle. […] Formed crystals were dissolved in dimethyl sulfoxide and optical density (OD) was measured at 570 nm. The OD of compound treated cells was divided by the OD of their vehicle control, and the viability was expressed as a percentage of untreated cells. Results are expressed as mean±SEM of three individual experiments.

CC(C)CCC[C@@H](C)[C@H]1CC[C@H]2[C@@H]3CC[C@H]4C[C@H](N)CC[C@]4(C)[C@H]3CC[C@]12C [NSC23922, (3R,5S,8R,9S,10S,13R,14S,17R)-10,13-dimethyl-17-[(2R)-6-methylheptan-2-yl]-2,3,4,5,6,7,8,9,11,12,14,15,16,17-tetradecahydro-1H-cyclopenta[a]phenanthren-3-amine]
inhibition of SHIP1 (SHIP1): full inhibition | growth and survival of cells (MTT viability) (KG-1 AML cells): decreases the growth and survival
